How the values were obtained:
Assay in all cases: KINOMEscan kinase binding assay (Eurofins/DiscoveRx), % Ctrl
Conditions in all cases: 1 μM
kinases [1] = biological target: T1, kinases (Homo sapiens, UniProt P00519)
T1 construct: purchased Eurofins/DiscoveRx; host or cells: E. coli BL21-derived host (T7 phage display) for most kinases; HEK-293 for the rest
Procedure: (§1) Kinase binding assays were performed at Eurofins/DiscoveRx using the general KINOMEscan Protocol (Fabian, M. A. et al., “A small molecule-kinase interaction map for clinical kinase inhibitors,” Nat. Biotechnol. 2005, 23(3):329-36). For most assays, kinase-tagged T7 phage strains were prepared in an E. coli host derived from the BL21 strain. E. coli were grown to log-phase and infected with T7 phage and incubated with shaking at 32° C. until lysis. The lysates were centrifuged and filtered to remove cell debris. The remaining kinases were produced in HEK-293 cells and subsequently tagged with DNA for qPCR detection. Streptavidin-coated magnetic beads were treated with biotinylated small molecule ligands for 30 minutes at room temperature to generate affinity resins for kinase assays. The liganded beads were blocked with excess biotin and washed with blocking buffer (SeaBlock (Pierce), 1% BSA, 0.05% Tween 20, 1 mM DTT) to remove unbound ligand and to reduce nonspecific binding. Binding reactions were assembled by combining kinases, liganded affinity beads, and test compounds in 1×binding buffer (20% SeaBlock, 0.17×PBS, 0.05% Tween 20, 6 mM DTT). All reactions were performed in polystyrene 96-well plates in a final volume of 0.135 mL. The assay plates were incubated at room temperature with shaking for 1 hour and the affinity beads were washed with washbuffer (1×PBS, 0.05% Tween 20). The beads were then re-suspended in elution buffer (1× PBS, 0.05% Tween 20, 0.5 μM non-biotinylated affinity ligand) and incubated at room temperature with shaking for 30 minutes. The kinase concentration in the eluates was measured by qPCR. Results for compounds tested in this assay at a given concentration are reported as “% Ctrl”, where lower numbers indicate stronger binding in the matrix.
(§2) (test compound signal-positive control signal)/(negative control signal-positive control signal) X100

kinases [2] = biological target: T2, kinases (Homo sapiens, UniProt P00519, H396P)
T2 construct: purchased Eurofins/DiscoveRx; host or cells: E. coli BL21-derived host (T7 phage display) for most kinases; HEK-293 for the rest
Procedure: as §1, §2

kinases [3] = biological target: T3, kinases (Homo sapiens, UniProt P00519, M351T)
T3 construct: purchased Eurofins/DiscoveRx; host or cells: E. coli BL21-derived host (T7 phage display) for most kinases; HEK-293 for the rest
Procedure: as §1, §2

kinases [4] = biological target: T4, kinases (Homo sapiens, UniProt P00519, Y253F)
T4 construct: purchased Eurofins/DiscoveRx; host or cells: E. coli BL21-derived host (T7 phage display) for most kinases; HEK-293 for the rest
Procedure: as §1, §2

kinases [5] = biological target: T5, kinases (Homo sapiens, UniProt P00533, DEL752-759)
T5 construct: purchased Eurofins/DiscoveRx; host or cells: E. coli BL21-derived host (T7 phage display) for most kinases; HEK-293 for the rest
Procedure: as §1, §2

kinases [6] = biological target: T6, kinases (Homo sapiens, UniProt P00533, G719C)
T6 construct: purchased Eurofins/DiscoveRx; host or cells: E. coli BL21-derived host (T7 phage display) for most kinases; HEK-293 for the rest
Procedure: as §1, §2

kinases [7] = biological target: T7, kinases (Homo sapiens, UniProt P00533, T790M)
T7 construct: purchased Eurofins/DiscoveRx; host or cells: E. coli BL21-derived host (T7 phage display) for most kinases; HEK-293 for the rest
Procedure: as §1, §2

kinases [8] = biological target: T8, kinases (Homo sapiens, UniProt P07949)
T8 construct: purchased Eurofins/DiscoveRx; host or cells: E. coli BL21-derived host (T7 phage display) for most kinases; HEK-293 for the rest
Procedure: as §1, §2

kinases [9] = biological target: T9, kinases (Homo sapiens, UniProt P07949, M918T)
T9 construct: purchased Eurofins/DiscoveRx; host or cells: E. coli BL21-derived host (T7 phage display) for most kinases; HEK-293 for the rest
Procedure: as §1, §2

kinases [10] = biological target: T10, kinases (Homo sapiens, UniProt P07949, V804L)
T10 construct: purchased Eurofins/DiscoveRx; host or cells: E. coli BL21-derived host (T7 phage display) for most kinases; HEK-293 for the rest
Procedure: as §1, §2

kinases [11] = biological target: T11, kinases (Homo sapiens, UniProt P09619)
T11 construct: purchased Eurofins/DiscoveRx; host or cells: E. coli BL21-derived host (T7 phage display) for most kinases; HEK-293 for the rest
Procedure: as §1, §2

kinases [12] = biological target: T12, kinases (Homo sapiens, UniProt P10721, L576P)
T12 construct: purchased Eurofins/DiscoveRx; host or cells: E. coli BL21-derived host (T7 phage display) for most kinases; HEK-293 for the rest
Procedure: as §1, §2

kinases [13] = biological target: T13, kinases (Homo sapiens, UniProt P10721, V559D/V654A)
T13 construct: purchased Eurofins/DiscoveRx; host or cells: E. coli BL21-derived host (T7 phage display) for most kinases; HEK-293 for the rest
Procedure: as §1, §2

kinases [14] = biological target: T14, kinases (Homo sapiens, UniProt P36888)
T14 construct: purchased Eurofins/DiscoveRx; host or cells: E. coli BL21-derived host (T7 phage display) for most kinases; HEK-293 for the rest
T14 sequence (P36888 27-993): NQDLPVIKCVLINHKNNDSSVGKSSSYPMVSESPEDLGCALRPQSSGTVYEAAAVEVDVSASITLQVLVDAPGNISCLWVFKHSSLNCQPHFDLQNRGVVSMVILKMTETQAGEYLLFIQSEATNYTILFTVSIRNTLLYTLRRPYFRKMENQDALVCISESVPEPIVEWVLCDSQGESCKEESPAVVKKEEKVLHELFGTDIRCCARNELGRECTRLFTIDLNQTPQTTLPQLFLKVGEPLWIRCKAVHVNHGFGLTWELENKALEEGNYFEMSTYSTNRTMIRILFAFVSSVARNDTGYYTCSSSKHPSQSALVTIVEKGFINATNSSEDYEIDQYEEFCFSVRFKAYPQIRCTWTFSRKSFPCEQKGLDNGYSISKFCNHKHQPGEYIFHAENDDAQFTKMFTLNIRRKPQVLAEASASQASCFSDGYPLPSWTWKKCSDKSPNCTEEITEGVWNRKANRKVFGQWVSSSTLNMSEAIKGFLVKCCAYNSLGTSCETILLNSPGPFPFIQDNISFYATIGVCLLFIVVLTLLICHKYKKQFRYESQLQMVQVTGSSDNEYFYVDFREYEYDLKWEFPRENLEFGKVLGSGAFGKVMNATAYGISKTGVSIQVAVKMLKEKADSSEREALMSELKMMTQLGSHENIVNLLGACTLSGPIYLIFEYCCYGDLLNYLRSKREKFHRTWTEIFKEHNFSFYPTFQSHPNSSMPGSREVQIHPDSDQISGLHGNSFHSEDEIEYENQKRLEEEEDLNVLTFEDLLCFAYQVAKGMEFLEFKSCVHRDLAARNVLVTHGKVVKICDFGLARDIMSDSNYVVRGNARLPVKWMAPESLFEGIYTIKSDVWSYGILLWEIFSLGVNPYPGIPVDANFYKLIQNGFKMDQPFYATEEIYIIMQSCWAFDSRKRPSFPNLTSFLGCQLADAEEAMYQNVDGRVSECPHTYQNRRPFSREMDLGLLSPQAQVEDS
Procedure: as §1, §2

T13 sequence (P10721 26-976 V559D/V654A): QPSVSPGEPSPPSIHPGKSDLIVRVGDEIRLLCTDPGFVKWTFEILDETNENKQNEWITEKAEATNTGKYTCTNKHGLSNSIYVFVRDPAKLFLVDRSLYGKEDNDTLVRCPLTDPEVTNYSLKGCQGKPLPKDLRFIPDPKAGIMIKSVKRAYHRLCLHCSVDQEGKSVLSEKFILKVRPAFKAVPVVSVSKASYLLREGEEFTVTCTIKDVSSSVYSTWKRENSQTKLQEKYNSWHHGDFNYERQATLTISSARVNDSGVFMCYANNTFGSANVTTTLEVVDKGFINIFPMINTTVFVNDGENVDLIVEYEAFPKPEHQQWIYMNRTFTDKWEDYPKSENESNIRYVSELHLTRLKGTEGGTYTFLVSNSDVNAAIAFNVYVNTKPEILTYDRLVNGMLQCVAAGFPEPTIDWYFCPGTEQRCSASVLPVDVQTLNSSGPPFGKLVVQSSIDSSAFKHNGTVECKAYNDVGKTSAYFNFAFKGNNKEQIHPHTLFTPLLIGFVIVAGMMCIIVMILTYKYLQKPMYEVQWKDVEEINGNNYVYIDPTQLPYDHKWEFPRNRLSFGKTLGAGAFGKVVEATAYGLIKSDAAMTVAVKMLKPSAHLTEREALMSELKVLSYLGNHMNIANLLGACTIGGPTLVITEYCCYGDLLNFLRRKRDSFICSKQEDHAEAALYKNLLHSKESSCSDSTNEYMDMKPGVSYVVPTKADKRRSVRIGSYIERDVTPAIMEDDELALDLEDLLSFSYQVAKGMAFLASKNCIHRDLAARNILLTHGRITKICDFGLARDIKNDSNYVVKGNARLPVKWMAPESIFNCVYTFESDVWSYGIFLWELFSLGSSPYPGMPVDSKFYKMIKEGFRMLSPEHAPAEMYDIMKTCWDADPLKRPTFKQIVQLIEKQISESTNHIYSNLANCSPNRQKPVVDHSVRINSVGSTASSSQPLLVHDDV
T10 sequence (P07949 29-1114 V804L): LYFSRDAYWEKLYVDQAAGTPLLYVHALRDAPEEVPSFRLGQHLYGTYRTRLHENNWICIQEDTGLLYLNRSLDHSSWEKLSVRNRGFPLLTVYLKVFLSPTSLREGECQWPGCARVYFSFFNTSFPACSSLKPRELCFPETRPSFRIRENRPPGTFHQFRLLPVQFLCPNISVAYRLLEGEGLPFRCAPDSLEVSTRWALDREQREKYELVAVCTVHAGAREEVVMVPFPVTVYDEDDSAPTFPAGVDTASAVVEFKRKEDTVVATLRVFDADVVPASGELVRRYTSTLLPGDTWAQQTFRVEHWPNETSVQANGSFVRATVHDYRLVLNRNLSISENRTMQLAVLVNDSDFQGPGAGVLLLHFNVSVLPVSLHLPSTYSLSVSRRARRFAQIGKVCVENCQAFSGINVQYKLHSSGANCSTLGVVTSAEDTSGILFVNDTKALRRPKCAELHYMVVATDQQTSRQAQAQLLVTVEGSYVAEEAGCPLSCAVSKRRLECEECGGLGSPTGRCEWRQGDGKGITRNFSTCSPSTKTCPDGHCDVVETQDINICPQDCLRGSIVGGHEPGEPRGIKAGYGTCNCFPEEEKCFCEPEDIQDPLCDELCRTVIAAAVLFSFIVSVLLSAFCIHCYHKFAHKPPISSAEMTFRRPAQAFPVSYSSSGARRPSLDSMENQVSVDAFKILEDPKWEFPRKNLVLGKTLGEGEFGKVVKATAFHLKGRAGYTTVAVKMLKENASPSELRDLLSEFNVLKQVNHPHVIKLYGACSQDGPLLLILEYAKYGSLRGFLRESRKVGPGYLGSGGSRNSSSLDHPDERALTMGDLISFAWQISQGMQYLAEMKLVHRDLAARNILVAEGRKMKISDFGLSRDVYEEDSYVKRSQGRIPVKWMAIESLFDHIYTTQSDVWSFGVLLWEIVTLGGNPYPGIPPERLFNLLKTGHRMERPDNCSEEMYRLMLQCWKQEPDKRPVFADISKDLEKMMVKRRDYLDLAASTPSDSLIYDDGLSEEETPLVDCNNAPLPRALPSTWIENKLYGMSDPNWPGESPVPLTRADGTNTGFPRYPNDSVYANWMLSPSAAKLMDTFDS
T9 sequence (P07949 29-1114 M918T): as the sequence (P07949 29-1114 V804L) above, with L776V, M890T counted along it
T12 sequence (P10721 26-976 L576P): as the sequence (P10721 26-976 V559D/V654A) above, with D534V, L551P, A629V counted along it
T11 sequence (P09619 33-1106): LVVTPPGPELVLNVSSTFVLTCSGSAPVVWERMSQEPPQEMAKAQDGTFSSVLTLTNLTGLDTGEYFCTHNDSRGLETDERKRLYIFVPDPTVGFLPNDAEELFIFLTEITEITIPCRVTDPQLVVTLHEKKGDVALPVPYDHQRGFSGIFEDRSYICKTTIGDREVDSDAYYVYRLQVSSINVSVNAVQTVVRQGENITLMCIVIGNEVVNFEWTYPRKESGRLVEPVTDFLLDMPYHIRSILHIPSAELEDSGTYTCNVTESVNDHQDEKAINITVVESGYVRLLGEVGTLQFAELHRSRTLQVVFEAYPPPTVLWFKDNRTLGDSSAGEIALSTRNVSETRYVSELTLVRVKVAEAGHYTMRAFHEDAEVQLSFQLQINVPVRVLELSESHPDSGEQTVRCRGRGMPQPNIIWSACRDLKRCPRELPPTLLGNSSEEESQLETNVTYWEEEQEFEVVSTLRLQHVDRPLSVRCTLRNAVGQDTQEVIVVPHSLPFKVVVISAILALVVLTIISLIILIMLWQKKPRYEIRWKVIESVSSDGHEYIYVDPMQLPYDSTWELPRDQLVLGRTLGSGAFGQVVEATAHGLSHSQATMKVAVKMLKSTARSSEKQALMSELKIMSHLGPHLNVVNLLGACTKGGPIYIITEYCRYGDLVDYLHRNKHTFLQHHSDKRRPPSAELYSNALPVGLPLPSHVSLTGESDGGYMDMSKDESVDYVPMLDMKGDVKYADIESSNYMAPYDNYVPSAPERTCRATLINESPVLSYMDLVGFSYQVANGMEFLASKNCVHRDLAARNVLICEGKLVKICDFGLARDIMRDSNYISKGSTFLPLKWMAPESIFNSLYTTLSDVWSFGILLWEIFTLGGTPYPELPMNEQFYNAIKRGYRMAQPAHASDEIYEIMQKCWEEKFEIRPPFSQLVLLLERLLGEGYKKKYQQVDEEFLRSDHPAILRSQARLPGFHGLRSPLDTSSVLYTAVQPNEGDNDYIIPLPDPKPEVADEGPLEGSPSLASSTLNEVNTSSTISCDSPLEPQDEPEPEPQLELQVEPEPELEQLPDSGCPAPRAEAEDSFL
T8 sequence (P07949 29-1114): as the sequence (P07949 29-1114 V804L) above, with L776V counted along it

Structure (SMILES)	% Ctrl, ABL1-nonphosphorylated (kinases [1]; ABL1-nonphosphorylated) [% Ctrl]	% Ctrl, ABL1-phosphorylated (kinases [1]; ABL1-phosphorylated) [% Ctrl]	% Ctrl, ABL1(H396P)-nonphosphorylated (kinases [2]; ABL1(H396P)-nonphosphorylated) [% Ctrl]	% Ctrl, ABL1(H396P)-phosphorylated (kinases [2]; ABL1(H396P)-phosphorylated) [% Ctrl]	% Ctrl, ABL1(M351T)-phosphorylated (kinases [3]; ABL1(M351T)-phosphorylated) [% Ctrl]	% Ctrl, ABL1(Y253F)-phosphorylated (kinases [4]; ABL1(Y253F)-phosphorylated) [% Ctrl]	% Ctrl, EGFR(S752-I759del) (kinases [5]; EGFR(S752-I759del)) [% Ctrl]	% Ctrl, EGFR(G719C) (kinases [6]; EGFR(G719C)) [% Ctrl]	% Ctrl, EGFR(T790M) (kinases [7]; EGFR(T790M)) [% Ctrl]	% Ctrl, RET (kinases [8]; RET) [% Ctrl]	% Ctrl, RET(M918T) (kinases [9]; RET(M918T)) [% Ctrl]	% Ctrl, RET(V804L) (kinases [10]; RET(V804L)) [% Ctrl]	% Ctrl, PDGFRB (kinases [11]; PDGFRB) [% Ctrl]	% Ctrl, KIT(L576P) (kinases [12]; KIT(L576P)) [% Ctrl]	% Ctrl, KIT(V559D, V654A) (kinases [13]; KIT(V559D, V654A)) [% Ctrl]	% Ctrl, FLT3 (kinases [14]; FLT3) [% Ctrl]	% Ctrl, FLT3-autoinhibited (kinases [14]; FLT3-autoinhibited) [% Ctrl]	further results
Cc1cc2c([nH]1)/C=C1\C(=O)Nc3cnc(cc31)-c1cnn(C)c1COCCNC2=O [Ex.123, [3a(4)Z]-6,14-dimethyl-10,11,13,14-tetrahydro-2H-17,1-(azenometheno)pyrazolo[4,3-m]dipyrrolo[3,2-f:3′,4′-i][1,4]oxazacyclopentadecine-3,8(5H,9H)-dione]	83	100	100	100	100	100	93	90	100	91	89	89	94	97	79	87	100	–
Cc1cc2c([nH]1)/C=C1\C(=O)Nc3cnc(cc31)-c1cn[nH]c1CNCCN(C)C2=O [Ex. 55, [3a(4)Z]-6,9-dimethyl-9,10,11,12,13,14-hexahydro-17,1-(azenometheno)pyrazolo[4,3-m]dipyrrolo[3,2-f:3′,4′-i][1,4]diazacyclopentadecine-3,8(2,5H)-dione]	–	–	–	–	–	–	–	–	–	–	–	–	–	–	–	–	–	% Ctrl, ABL1-nonphosphorylated (kinases [1]; target ABL1-nonphosphorylated): 10 % Ctrl; % Ctrl, ABL1-phosphorylated (kinases [1]; target ABL1-phosphorylated): 6 % Ctrl; % Ctrl, ABL1(H396P)-nonphosphorylated (kinases [2]; target ABL1(H396P)-nonphosphorylated): 0.8 % Ctrl; % Ctrl, ABL1(H396P)-phosphorylated (kinases [2]; target ABL1(H396P)-phosphorylated): 3.6 % Ctrl; % Ctrl, ABL1(M351T)-phosphorylated (kinases [3]; target ABL1(M351T)-phosphorylated): 3.7 % Ctrl; % Ctrl, ABL1(Y253F)-phosphorylated (kinases [4]; target ABL1(Y253F)-phosphorylated): 3.1 % Ctrl; % Ctrl, EGFR(S752-I759del) (kinases [5]; target EGFR(S752-I759del)): 84 % Ctrl; % Ctrl, EGFR(G719C) (kinases [6]; target EGFR(G719C)): 68 % Ctrl; % Ctrl, EGFR(T790M) (kinases [7]; target EGFR(T790M)): 70 % Ctrl; % Ctrl, RET (kinases [8]; target RET): 4.2 % Ctrl; % Ctrl, RET(M918T) (kinases [9]; target RET(M918T)): 0.6 % Ctrl; % Ctrl, RET(V804L) (kinases [10]; target RET(V804L)): 0.3 % Ctrl; % Ctrl, PDGFRB (kinases [11]; target PDGFRB): 10 % Ctrl; % Ctrl, KIT(L576P) (kinases [12]; target KIT(L576P)): 17 % Ctrl; % Ctrl, KIT(V559D, V654A) (kinases [13]; target KIT(V559D, V654A)): 22 % Ctrl; % Ctrl, FLT3-autoinhibited (kinases [14]; target FLT3-autoinhibited): 10 % Ctrl; % Ctrl, FLT3 (kinases [14]; target FLT3): 11 % Ctrl
Cc1cc2c([nH]1)/C=C1\C(=O)Nc3ccc(cc31)OCCOCCNC2=O [Ex. 129, [16a(17)Z]-2-methyl-6,7,9,10-tetrahydro-1H-12,14-(ethanediylidene)dipyrrolo[3,2-i:3′,4′-l][1,4,7]dioxazacyclopentadecine-4,16(5H,15H)-dione]	84	91	87	93	83	98	78	100	100	100	100	96	100	98	98	100	98	–
Cc1cc2c([nH]1)/C=C1\C(=O)Nc3ccc(cc31)OCCOCCN(C)C2=O [Ex.91, [16a(17)Z]-2,5-dimethyl-6,7,9,10-tetrahydro-1H-12,14-(ethanediylidene)dipyrrolo[3,2-i:3′,4′-l][1,4,7]dioxazacyclopentadecine-4,16(5H,15H)-dione]	0.75	15	0.55	15	8.5	7.8	63	92	82	4.3	7	3.8	55	14	8	11	38	–

— patent publication US20230257396A1, “MACROCYCLES AND THEIR USE” (BLOSSOMHILL THERAPEUTICS, INC., priority 2020, published 2023)
